Earlier results on 24 substances are cited in article PMC4047818 (Biochemistry, 2014).

Read-outs that look alike come from different tables or passages of the source.

One data set relates to insulin receptor. On the set-up: method as in 24 sources, one per row (each row's own in cited_ref): ref [58] = [58]; PMID 18048361; doi:10.1074/jbc.M709220200; Gauguin L.; Klaproth B.; Sajid W.; Andersen A. S.; McNeil K. A.; Forbes B. E.; De Meyts P. ( 2008 ) Structural basis for the lower affinity of the insulin-like growth factors for the insulin rec ||| ref [59] = [59]; PMID 9148904; doi:10.1074/jbc.272.20.12978; Kristensen C.; Kjeldsen T.; Wiberg F. C.; Schaffer L.; Hach M.; Havelund S.; Bass J.; Steiner D. F.; Andersen A. S. ( 1997 ) Alanine scanning mutagenesis of insulin . J. Biol. Chem. 272 , 1297 ||| ref [33] = [33]; PMID 17316105; doi:10.1089/dia.2006.0035; Becker R. H. A. ( 2007 ) Insulin glulisine complementing basal insulins: A review of structure and activity . Diabetes Technol. Ther. 9 , 109 – 121 . 17316105 10.1089/dia.2006.0035 ||| ref [60],[61] = [60]; PMID 3541911; doi:10.1042/bj2380345; Bajaj M.; Blundell T. L.; Horuk R.; Pitts J. E.; Wood S. P.; Gowan L. K.; Schwabe C.; Wollmer A.; Gliemann J.; Gammeltoft S. ( 1986 ) Coypu Insulin: Primary Structure, Conformation and Biolog || [61]; PMID 11445250; doi:10.1016/s0196-9781(01)00423-5; Conlon J. M. ( 2001 ) Evolution of the insulin molecule: Insights into structure-activity and phylogenetic relationships . Peptides 22 , 1183 – 1193 . 11445250 10.1016/s0196-9781(01)00423-5 ||| ref [66] = [66]; PMID 2268358; doi:10.1016/s0006-291x(05)80882-4; Burke G. T.; Hu S. Q.; Ohta N.; Schwartz G. P.; Zong L.; Katsoyannis P. G. ( 1990 ) Superactive insulins . Biochem. Biophys. Res. Commun. 173 , 982 – 987 . 2268358 10.1016/s0006-291x(05)80882-4 ||| ... To be noted: for relative affinity: insulin = 100.

The target in data set [1] is insulin receptor (Homo sapiens) (UniProt P06213). Description: radioligand binding.
Chain of UniProt P06213 (P06213 763-1382): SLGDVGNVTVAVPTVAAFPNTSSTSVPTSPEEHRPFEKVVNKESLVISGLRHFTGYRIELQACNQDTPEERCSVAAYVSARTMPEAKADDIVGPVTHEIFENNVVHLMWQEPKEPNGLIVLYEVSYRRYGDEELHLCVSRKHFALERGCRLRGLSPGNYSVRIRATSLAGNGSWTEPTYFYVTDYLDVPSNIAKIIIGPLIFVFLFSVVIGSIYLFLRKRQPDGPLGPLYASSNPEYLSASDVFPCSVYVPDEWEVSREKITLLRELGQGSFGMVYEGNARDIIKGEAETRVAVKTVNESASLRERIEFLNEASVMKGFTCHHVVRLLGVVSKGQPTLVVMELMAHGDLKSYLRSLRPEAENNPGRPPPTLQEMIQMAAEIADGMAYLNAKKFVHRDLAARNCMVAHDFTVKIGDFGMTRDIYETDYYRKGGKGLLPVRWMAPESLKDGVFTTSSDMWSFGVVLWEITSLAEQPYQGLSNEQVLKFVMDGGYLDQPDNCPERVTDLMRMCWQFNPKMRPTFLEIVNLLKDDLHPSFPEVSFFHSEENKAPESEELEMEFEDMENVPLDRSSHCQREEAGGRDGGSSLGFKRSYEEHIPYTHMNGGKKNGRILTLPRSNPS

Chain of insulin (P01308 90-110): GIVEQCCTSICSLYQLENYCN

“DKPwinsulin: monomeric insulin analogue containing three substitutions in the B-chain (AspB10, LysB28, ProB29)”: the relative affinity in the data set with insulin receptor (ref (15)) is 160%. “[AlaB1]winsulin: literature insulin analogue, Ala at B1”: the relative affinity in the data set with insulin receptor (ref (6)) is on record as 79%. For the substance “[AlaB2]winsulin: literature insulin analogue, Ala at B2”, the relative affinity in the data set on insulin receptor (ref (6)) is 110%.

With “[AlaB3]-insulin: literature insulin analogue, Ala at B3”, the relative affinity in the data set on insulin receptor (ref (6)) is recorded as 134%. Also, the binding affinity with insulin receptor (relative to HI, ref [59]) is 134%. Turning to “[AlaB4]winsulin: literature insulin analogue, Ala at B4”, in the data set with insulin receptor (ref (6)), the relative affinity is 54%. “[AlaB5]-insulin: literature insulin analogue, Ala at B5”: the relative affinity in the data set on insulin receptor (ref (9)) is recorded as 31%. Turning to “[AlaB5]DKPwinsulin: DKP-insulin analogue, Ala at B5”, the relative affinity with insulin receptor (ref (13)) is 129%.

Consider “[AlaB6]winsulin: literature insulin analogue, Ala at B6”, for which the relative affinity in the data set with insulin receptor (ref (6, 14)) is listed as 1.4%. As for “[ArgB5]winsulin: insulin with naturally occurring ArgB5 mutation”, in the data set on insulin receptor (ref (10)), the relative affinity is recorded as 40%. “[AsnB5]winsulin: literature insulin analogue, Asn at B5”: in the data set with insulin receptor (ref (12)), the relative affinity was 46%.

As for “[AspB5]-insulin: literature insulin analogue, Asp at B5”, in the data set on insulin receptor (ref (12)), the relative affinity was 0.4%. In addition, the binding affinity in the data set on insulin receptor (relative to HI, ref [66]) is given as 0.4%.

As to “[Cys(B4–B10),desB30]-insulin: literature insulin analogue with an additional B4–B10 disulfide bond, desB30”, in the data set on insulin receptor (ref (8)), the relative affinity is recorded as 132%. Besides, the affinity with insulin receptor (relative to HI, ref [31]) is on record as 130%. Consider “[GlyB6]winsulin: literature insulin analogue, Gly at B6”, for which the relative affinity in the data set on insulin receptor (ref (14)) is listed as 0.052%. With “[LeuB8,desB30]winsulin: literature insulin analogue, Leu at B8, desB30”, in the data set on insulin receptor (ref (18)), the relative affinity was < 0.2%.

As for “[MetB6]winsulin: literature insulin analogue, Met at B6”, the relative affinity in the data set with insulin receptor (ref (14)) is recorded as 15%. On to “[PheB6]winsulin: literature insulin analogue, Phe at B6”, for which the relative affinity in the data set on insulin receptor (ref (14)) is on record as 10%. For “[ProB3]-insulin: literature insulin analogue, Pro at B3”, in the data set on insulin receptor (ref (7)), the relative affinity was 54%. Also, in the data set with insulin receptor (relative to HI, ref [58]), the binding affinity is given as 54%. Take “[SerB3]-insulin: literature insulin analogue, Ser at B3”: the relative affinity with insulin receptor (ref (7)) is on record as 97%. Also, the binding affinity with insulin receptor (relative to HI, ref [58]) is reported as 97%. Take “[SerB8,desB30]winsulin: literature insulin analogue, Ser at B8, desB30”: the relative affinity in the data set with insulin receptor (ref (18)) was 23%. In addition, the “IR affinity relative to HI” value in the data set on insulin receptor (published analogues, ref Table S5 of the Supporting Information) is reported as 23%. On to “[SerB8]DKPwinsulin: DKP-insulin analogue, Ser at B8”, for which the relative affinity in the data set with insulin receptor (ref (15, 17)) is recorded as 90%. Turning to “[ThrB8,desB30]winsulin: literature insulin analogue, Thr at B8, desB30”, in the data set with insulin receptor (ref (18)), the relative affinity is on record as < 0.2%. For the substance “[ValB6]winsulin: literature insulin analogue, Val at B6”, in the data set on insulin receptor (ref (14)), the relative affinity is recorded as 3.3%.

One may read the Kd as the free concentration of one partner at which half of the binding sites on the other are occupied at equilibrium, for simple one-to-one binding. Consider insulin (from UniProt P01308), for which the Kd in data set [1] was 0.3 nM. Consider “insulin glulisine: [LysB3,GluB29]-insulin analogue”, for which the affinity result in the data set with insulin receptor (relative to wild type, ref [33]) was “wild-type-like affinity”.
